Earlier results in paper PMC4274137 (HIV/AIDS (Auckland, N.Z.), 2014).
Like-named read-outs stand apart in the source and are kept apart here. One block for each compound: values may come before it.

Assays:
[1] = tested on: HIV patients; settings: DAD study
[2] = tested on: HIV patients; settings: HIV patients in France
[3] = tested on: Asian patients with HIV
[4] = tested on: HIV patients
[5] = tested on: HIV dyslipidemia
[6] = tested on: HIV patients; remark: listed apart in the source
[7] = tested on: HIV patients; settings: Danish study
[8] = HIV dyslipidemia, ezetimibe monotherapy or combined with statin

SMILES: Nc1nc(NC2CC2)c2ncn([C@H]3C=C[C@@H](CO)C3)c2n1 [abacavir]
risk of myocardial infarction [1]: associated with independent risk of myocardial infarction

risk factor for hypothyroidism [2]: risk factors | association of treatment with NAFLD [3]: not with HIV-related factors
SMILES: Cc1cn([C@H]2C=C[C@@H](CO)O2)c(=O)[nH]c1=O [stavudine]

SMILES: O=C(O)c1cccnc1 [Niacin]
safety ([4]; HIV patients, two studies): safe | efficacy in improving lipid profile ([5]; HIV patients, two studies): effective

SMILES: O=C1[C@H](CC[C@H](O)c2ccc(F)cc2)[C@@H](c2ccc(O)cc2)N1c1ccc(F)cc1 [Ezetimibe]
safety [4, 8]: safe | lipid-lowering efficacy [5, 8]: effective

SMILES: CC(C)OC(=O)C(C)(C)Oc1ccc(C(=O)c2ccc(Cl)cc2)cc1 [Fenofibrate]
safety ([4]; people with HIV infection): generally safe | efficacy in mixed dyslipidemia and hypertriglyceridemia ([5]; people with HIV infection): useful

association of treatment with NAFLD [3]: not with HIV-related factors
SMILES: Nc1ccn([C@H]2CC[C@@H](CO)O2)c(=O)n1 [zalcitabine]

SMILES: O=C1Nc2ccc(Cl)cc2[C@@](C#CC2CC2)(C(F)(F)F)O1 [efavirenz]
total cholesterol and triglycerides ([6]; HIV patients on NNRTIs): associated with increase in total cholesterol and triglycerides

high triglycerides and lipoatrophy (NRTI effect) ([6]; compared with other NRTIs): this effect is less seen
SMILES: C[C@H](Cn1cnc2c(N)ncnc21)OCP(=O)(O)O [tenofovir]
estimated glomerular filtration rate (eGFR) [7]: reduced estimated glomerular filtration rate
